Source: ChEMBL document CHEMBL6153032, “Discovery of a highly potent, N-terminal domain-targeting degrader of AR-FL/AR-V7 for the treatment of prostate cancer” (Eur J Med Chem, 2025)
The source made the active and inactive calls. The calls are words filed in the database; no cut-off is given here.

What was measured:
[1] = test system: Protein cereblon/Androgen receptor (Homo sapiens), P10275+Q96SW2 [UNDEFINED MUTATION]; assay: PROTAC activity at AR-V7/CRBN in human 22Rv1 cells assessed as reduction in AR-V7 level at 1 uM by Western blot analysis; assay type: cell-based; settings: CWR22R, time 6.0 hrs
Sequence of Protein cereblon/Androgen receptor (Homo sapiens), P10275+Q96SW2 [UNDEFINED MUTATION] (P10275 whole entry, looked up, stated change not applied): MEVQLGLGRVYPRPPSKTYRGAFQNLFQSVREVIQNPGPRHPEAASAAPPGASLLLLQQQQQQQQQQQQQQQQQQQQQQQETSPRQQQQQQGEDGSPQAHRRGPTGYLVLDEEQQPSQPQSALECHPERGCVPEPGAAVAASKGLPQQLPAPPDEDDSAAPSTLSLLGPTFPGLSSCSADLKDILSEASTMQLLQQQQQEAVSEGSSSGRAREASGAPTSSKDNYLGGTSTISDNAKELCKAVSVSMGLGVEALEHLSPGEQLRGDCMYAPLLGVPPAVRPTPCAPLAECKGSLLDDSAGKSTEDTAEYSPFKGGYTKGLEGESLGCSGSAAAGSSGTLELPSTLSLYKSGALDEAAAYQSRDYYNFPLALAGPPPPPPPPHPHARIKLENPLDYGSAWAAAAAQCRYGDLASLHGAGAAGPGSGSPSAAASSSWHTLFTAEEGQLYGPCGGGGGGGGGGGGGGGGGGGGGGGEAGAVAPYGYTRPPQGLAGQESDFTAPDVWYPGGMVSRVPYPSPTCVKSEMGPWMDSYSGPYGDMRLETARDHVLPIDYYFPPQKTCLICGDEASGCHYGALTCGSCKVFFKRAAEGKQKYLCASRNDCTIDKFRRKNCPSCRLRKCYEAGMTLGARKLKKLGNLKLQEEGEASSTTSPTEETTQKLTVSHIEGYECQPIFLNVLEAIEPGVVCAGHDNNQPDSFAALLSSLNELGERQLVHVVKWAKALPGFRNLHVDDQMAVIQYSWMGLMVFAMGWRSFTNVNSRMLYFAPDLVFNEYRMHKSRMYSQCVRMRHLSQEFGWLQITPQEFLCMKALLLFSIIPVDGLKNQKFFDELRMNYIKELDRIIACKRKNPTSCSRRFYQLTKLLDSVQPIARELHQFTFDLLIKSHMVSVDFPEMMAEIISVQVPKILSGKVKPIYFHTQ
Sequence of Protein cereblon/Androgen receptor (Homo sapiens), P10275+Q96SW2 [UNDEFINED MUTATION] (Q96SW2 whole entry, looked up, stated change not applied): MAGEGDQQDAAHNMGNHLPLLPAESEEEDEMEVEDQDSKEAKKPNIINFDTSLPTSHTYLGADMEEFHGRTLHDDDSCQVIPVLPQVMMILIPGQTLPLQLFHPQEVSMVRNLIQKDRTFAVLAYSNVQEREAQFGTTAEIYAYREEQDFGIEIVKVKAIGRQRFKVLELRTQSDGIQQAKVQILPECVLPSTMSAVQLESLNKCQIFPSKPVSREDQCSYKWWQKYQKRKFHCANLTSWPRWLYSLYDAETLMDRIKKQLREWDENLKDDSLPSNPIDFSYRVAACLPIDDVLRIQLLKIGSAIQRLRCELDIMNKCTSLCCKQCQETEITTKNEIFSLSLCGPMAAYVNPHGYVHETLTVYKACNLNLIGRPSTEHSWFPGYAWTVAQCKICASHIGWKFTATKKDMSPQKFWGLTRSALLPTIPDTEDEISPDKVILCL

[2] = Clearance in Sprague-Dawley rat 2 mg/kg, iv by LC-MS/MS analysis; assay type: ADME, organism-based; settings: in vivo
[3] = AUC (0 to t) in Sprague-Dawley rat 2 mg/kg, iv by LC-MS/MS analysis; assay type: ADME, organism-based; settings: in vivo
[4] = AUC (0 to infinity) in Sprague-Dawley rat 2 mg/kg, iv by LC-MS/MS analysis; assay type: ADME, organism-based; settings: in vivo
[5] = test system: CWR22R; assay: Induction of apoptosis in human 22Rv1 cells assessed as viable cells at 100 nM incubated for 48 hrs by Annexin V/FITC staining based flow cytometry analysis (reference value: 94.49%); assay type: functional; settings: read-out: Activity
[6] = test system: Protein cereblon/Androgen receptor (Homo sapiens), P10275+Q96SW2 [UNDEFINED MUTATION]; assay: PROTAC activity at AR-V7/CRBN in human 22Rv1 cells assessed as induction of AR-V7 degradation at 100 nM incubated for 12 hrs in presence of Thalidomide by Western blot analysis; assay type: cell-based; settings: CWR22R
[7] = Antiproliferative activity against human MCF-10A cells assessed as cell viability incubated for 4 days by CCK-8 assay; assay type: toxicity, cell-based
[8] = Toxicity in BALB/c mouse assessed as lung damage at 10 mg/kg, iv administered once daily for 21 days by H and E staining based analysis; assay type: organism-based; settings: in vivo, 504 h, time 21 day
[9] = Metabolic stability in human liver microsome assessed as intrinsic clearance measured upto 45 mins by LC/MS analysis; assay type: ADME; settings: liver microsomes, read-out: CLH
[10] = test system: Protein cereblon/Androgen receptor (Homo sapiens), P10275+Q96SW2 [UNDEFINED MUTATION]; assay: PROTAC activity at AR-V7/CRBN in human 22Rv1 cells assessed as reduction in AR-V7 level at 100 nM incubated for 24 hrs by immunofluorescence analysis; assay type: cell-based; settings: CWR22R
[11] = test system: Protein cereblon/Androgen receptor (Homo sapiens), P10275+Q96SW2 [UNDEFINED MUTATION]; assay: PROTAC activity at AR-V7/CRBN in human 22Rv1 cells assessed as induction of AR-V7 degradation at 100 nM incubated for 12 hrs in presence of MG132 by Western blot analysis; assay type: cell-based; settings: CWR22R
[12] = target: T1, Protein cereblon/Androgen receptor (Homo sapiens, UniProt P10275+Q96SW2); assay: PROTAC activity at full length Androgen receptor/CRBN in human 22Rv1 cells assessed as induction of full length androgen receptor degradation at 100 nM incubated for 12 hrs in presence of Thalidomide by Western blot analysis; assay type: cell-based
Target sequence in this assay (P10275 whole entry, looked up): as the sequence (P10275 whole entry, looked up, stated change not applied) above
Target sequence in this assay (Q96SW2 whole entry, looked up): as the sequence (Q96SW2 whole entry, looked up, stated change not applied) above

[13] = Metabolic stability in mouse liver microsome assessed as half life measured upto 45 mins by LC/MS analysis; assay type: ADME; settings: liver microsomes
[14] = test system: CWR22R; assay: Induction of apoptosis in human 22Rv1 cells assessed as late apoptotic cells at 500 nM incubated for 48 hrs by Annexin V/FITC staining based flow cytometry analysis (reference value: 1.12 %); assay type: functional
[15] = target: Protein cereblon/Estrogen receptor (Homo sapiens) (UniProt P03372+Q96SW2); assay: PROTAC activity at CRBN/ERalpha in human 22Rv1 cells assessed as reduction in ERalpha protein level at 0.01 to 5 uM measured after 24 hrs by Western blot analysis; assay type: cell-based; settings: dose 0.01-5 µM
Sequence of Protein cereblon/Estrogen receptor (Homo sapiens) (P03372 whole entry, looked up): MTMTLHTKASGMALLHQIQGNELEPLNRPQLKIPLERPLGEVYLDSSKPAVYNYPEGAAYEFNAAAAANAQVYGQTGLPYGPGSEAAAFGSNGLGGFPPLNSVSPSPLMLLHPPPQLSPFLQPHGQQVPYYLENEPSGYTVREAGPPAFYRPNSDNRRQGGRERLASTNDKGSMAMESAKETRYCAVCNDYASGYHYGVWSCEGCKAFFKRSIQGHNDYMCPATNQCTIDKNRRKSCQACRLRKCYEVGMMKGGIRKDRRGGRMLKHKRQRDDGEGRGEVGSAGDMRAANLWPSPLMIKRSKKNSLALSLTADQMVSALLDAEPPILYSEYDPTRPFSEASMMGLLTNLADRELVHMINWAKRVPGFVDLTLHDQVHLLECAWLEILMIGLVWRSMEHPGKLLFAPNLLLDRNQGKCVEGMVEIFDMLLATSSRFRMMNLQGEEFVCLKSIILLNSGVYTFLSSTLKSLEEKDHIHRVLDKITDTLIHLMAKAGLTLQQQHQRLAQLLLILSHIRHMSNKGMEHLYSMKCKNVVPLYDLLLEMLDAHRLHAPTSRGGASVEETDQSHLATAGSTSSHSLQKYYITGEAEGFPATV
Sequence of Protein cereblon/Estrogen receptor (Homo sapiens) (Q96SW2 whole entry, looked up): as the sequence (Q96SW2 whole entry, looked up, stated change not applied) above

[16] = test system: Protein cereblon/Androgen receptor (Homo sapiens), P10275+Q96SW2 [UNDEFINED MUTATION]; assay: PROTAC activity at AR-V7/CRBN in human 22Rv1 cells assessed as induction of AR-V7 degradation at 0.1 uM incubated for 24 hrs in presence of CHX by Western blot analysis; assay type: cell-based; settings: CWR22R
[17] = target: T1, Protein cereblon/Androgen receptor; assay: PROTAC activity at full length Androgen receptor/CRBN in human 22Rv1 cells assessed as reduction in full length androgen receptor level incubated for 24 hrs by Western blot analysis; assay type: cell-based
[18] = test system: CWR22R; assay: Inhibition of colony formation in human 22Rv1 cells assessed as reduction in colony formation incubated for 14 days; assay type: functional, cell-based; settings: dose 1-100 nM, time 14.0 day
[19] = Cmax in Sprague-Dawley rat 2 mg/kg, iv by LC-MS/MS analysis; assay type: ADME, organism-based; settings: in vivo
[20] = Toxicity in BALB/c mouse assessed as spleen damage at 10 mg/kg, iv administered once daily for 21 days by H and E staining based analysis; assay type: organism-based; settings: in vivo, 504 h, time 21 day
[21] = Metabolic stability in mouse liver microsome assessed as intrinsic clearance measured upto 45 mins by LC/MS analysis; assay type: ADME; settings: liver microsomes, read-out: CLH
[22] = Metabolic stability in rat liver microsome assessed as intrinsic clearance measured upto 45 mins by LC/MS analysis; assay type: ADME; settings: liver microsomes, read-out: CLH
[23] = test system: CWR22R; assay: Induction of cell cycle arrest in human 22Rv1 cells assessed as accumulation of cells at S phase at 100 nM incubated for 24 hrs by PI staining based flow cytometry analysis (reference value: 28.73%); assay type: functional
[24] = test system: CWR22R; assay: Induction of apoptosis in human 22Rv1 cells assessed as necrotic cells at 500 nM incubated for 48 hrs by Annexin V/FITC staining based flow cytometry analysis (reference value: 2.31 %); assay type: functional
[25] = test system: CWR22R; assay: Induction of cell cycle arrest in human 22Rv1 cells assessed as accumulation of cells at G2/M phase at 500 nM incubated for 24 hrs by PI staining based flow cytometry analysis (reference value: 8.61%); assay type: functional
[26] = MRT (0 to t) in Sprague-Dawley rat 2 mg/kg, iv by LC-MS/MS analysis; assay type: ADME, organism-based; settings: in vivo
[27] = Metabolic stability in rat liver microsome assessed as half life measured upto 45 mins by LC/MS analysis; assay type: ADME; settings: liver microsomes
[28] = target: T1, Protein cereblon/Androgen receptor; assay: PROTAC activity at full length Androgen receptor/CRBN in human 22Rv1 cells assessed as induction of full length Androgen receptor degradation at 5 uM incubated for 24 hrs by Western blot analysis relative to control; assay type: cell-based
Target sequence in this assay (P10275 whole entry, looked up): as the sequence (P10275 whole entry, looked up, stated change not applied) above
Target sequence in this assay (Q96SW2 whole entry, looked up): as the sequence (Q96SW2 whole entry, looked up, stated change not applied) above

[29] = test system: CWR22R; assay: Induction of cell cycle arrest in human 22Rv1 cells assessed as accumulation of cells at G0/G1 phase at 100 nM incubated for 24 hrs by PI staining based flow cytometry analysis (reference value: 62.66%); assay type: functional
[30] = target: T1, Protein cereblon/Androgen receptor; assay: PROTAC activity at full length Androgen receptor/CRBN in human 22Rv1 cells assessed as induction of full length Androgen receptor degradation at 0.1 uM incubated for 24 hrs in presence of CHX by Western blot analysis; assay type: cell-based
Target sequence in this assay (P10275 whole entry, looked up): as the sequence (P10275 whole entry, looked up, stated change not applied) above
Target sequence in this assay (Q96SW2 whole entry, looked up): as the sequence (Q96SW2 whole entry, looked up, stated change not applied) above

[31] = test system: CWR22R; assay: Induction of apoptosis in human 22Rv1 cells assessed as early apoptotic cells at 100 nM incubated for 48 hrs by Annexin V/FITC staining based flow cytometry analysis (reference value: 2.08 %); assay type: functional
[32] = Metabolic stability in human liver microsome assessed as half life measured upto 45 mins by LC/MS analysis; assay type: ADME; settings: liver microsomes
[33] = Toxicity in BALB/c mouse assessed as kidney damage at 10 mg/kg, iv administered once daily for 21 days by H and E staining based analysis; assay type: organism-based; settings: in vivo, 504 h, time 21 day
[34] = test system: CWR22R; assay: Downregulation of KLK2 mRNA level in human 22Rv1 cells incubated for 24 hrs by qRT-PCR analysis; assay type: functional, cell-based; settings: dose 100-500 nM
[35] = target: T1, Protein cereblon/Androgen receptor; assay: PROTAC activity at full length Androgen receptor/CRBN in human 22Rv1 cells assessed as induction of full length Androgen receptor degradation at 1 uM incubated for 24 hrs by Western blot analysis relative to control; assay type: cell-based
Target sequence in this assay (P10275 whole entry, looked up): as the sequence (P10275 whole entry, looked up, stated change not applied) above
Target sequence in this assay (Q96SW2 whole entry, looked up): as the sequence (Q96SW2 whole entry, looked up, stated change not applied) above

[36] = target: T1, Protein cereblon/Androgen receptor; assay: PROTAC activity at full length Androgen receptor/CRBN in human 22Rv1 cells assessed as induction of full length androgen receptor degradation at 100 nM incubated for 12 hrs in presence of MG132 by Western blot analysis; assay type: cell-based
Target sequence in this assay (P10275 whole entry, looked up): as the sequence (P10275 whole entry, looked up, stated change not applied) above
Target sequence in this assay (Q96SW2 whole entry, looked up): as the sequence (Q96SW2 whole entry, looked up, stated change not applied) above

Activity [1]: Time-dependent-effect | clearance [2]: 15.1 mL/min/kg | AUC(0-t) [3]: 2210 ng·h/mL | AUC(0-inf) [4]: 2220 ng·h/mL | Activity [6]: Active | CLint scaled [9]: 43.1 mL/min/kg | Activity [10]: Active | Activity [11]: Active | Activity [12]: Active | half-life [13]: 18.4 min | Activity [15]: Active | Activity [16]: Active | DC50 [17]: 0.18 µM | Activity ([17]; dose <= 5.0 µM): Dose-dependent-effect | Cmax [19]: 6440 ng/mL | CLint scaled [21]: 296 mL/min/kg | CLint scaled [22]: 40.8 mL/min/kg | MRT last [26]: 32.4 min | half-life [27]: 61.1 min | Activity [28]: 90.2% | Activity [30]: Active | half-life [32]: 37.2 min | Activity [35]: 89.2% | Activity [36]: Active
SMILES: CC(C)(c1ccc(OCCNc2cccc3c2C(=O)N(C2CCC(=O)NC2=O)C3=O)cc1)c1ccc(OCc2cccc(N3CCOCC3)n2)cc1 (configuration not stated)
viability at 0.1 µM [5]: 71% | IC50 at 4 days [7]: > 80 µM | Activity [8]: Non-toxic | Activity [14]: 15.59% | inhibition [18]: Dose-dependent-effect | Activity [20]: Non-toxic | Activity [23]: 43.39% | Activity [24]: 2.4% | Activity [25]: 21.54% | Activity [29]: 41.16% | Activity [31]: 14.57% | Activity [33]: Non-toxic | Activity [34]: Dose-dependent-effect
